Experimental findings from the METLIN SMRT retention time set (Domingo-Almenara et al. 2019) are described below.

A short description of the series: gradient 5% acetonitrile 3 min, to 50% in 2 min, to 85% in 15 min, held 3 min, 100 µL/min. The following applies: column: Zorbax Extend-C18 2.1 x 50 mm; eluents: water / acetonitrile, 0.1% formic acid. The method, boiled down: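 Standards, all pure, were combined into mixtures of ~100 molecules and run at 100 μL/min on a Zorbax Extend-C18 column (2.1 × 50 mm, 1.8 μm) with water and acetonitrile, each containing 0.1% formic acid. A coupled quadrupole time-of-flight mass spectrometer operated in positive and negative ionization mode. Retention time values come from computationally picked adduct peaks, each inspected manually.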
`CCc1noc2nc(C)n(CC(=O)NCCc3ccc(C)cc3)c(=O)c12` registered an RP-LC retention time of 851 s.

On to `COc1ccc(-c2cc3nn(CC(=O)Nc4c(C)cccc4C)c(=O)n3c(C)n2)cc1`, for which the RP-LC retention time turned out to be 909 s.

`CCCn1c(=O)sc2cc(S(=O)(=O)N3CCC(C(=O)N(C)Cc4ccccc4)CC3)ccc21` showed an RP-LC retention time of 985 s.

For `O=C(Cc1csc2nc(-c3ccccc3)cn12)NCc1ccco1`, the RP-LC retention time was determined as 696 s.

The compound `O=C(NC1CC1)C1CCN(Cc2cc3ccccc3n2Cc2ccc(F)cc2)CC1` gave an RP-LC retention time of 701 s.

The compound `COc1ccccc1NC(=O)N1CCC(n2cnc3c(Cl)cccc3c2=O)CC1` registered an RP-LC retention time of 830 s.

On to `O=C(Nc1cccc(Cl)c1)N1CCC(n2cnnc2C2CC2)C1` (stereo not given), for which the RP-LC retention time was determined as 658 s.

`Cc1oc(-c2[nH]ncc2C(=O)N2CCOCC2)cc1S(=O)(=O)Nc1ccccc1` returned an RP-LC retention time of 655 s.

Take `CCCCNC(=O)C1CCCN(c2nnc3ccc(C(F)(F)F)cn23)C1` (stereo not given): the RP-LC retention time worked out at 751 s.

Consider `CCc1noc(-c2nc(-c3ccc(OC)c(F)c3)no2)n1`, for which the RP-LC retention time worked out at 926 s.

`O=C(c1ccc(Cl)nc1)c1cccs1` gave an RP-LC retention time of 897 s.

`CC(O)c1nc2ccccc2n1CC(=O)N(c1ccccc1)C(C)C` (stereo not given) registered an RP-LC retention time of 647 s.

The compound `Cc1ccc(C)c(NC(=O)C2CCN(S(=O)(=O)c3cc(C(=O)N(C)C)cs3)CC2)c1` yielded an RP-LC retention time of 790 s.

Regarding `CCSc1nnc(-c2nn(C)c3c2CN(C(=O)c2cccc(N(C)C)c2)CC3)n1C`, the RP-LC retention time amounted to 682 s.

As for `O=C(Cn1ccc2sccc2c1=O)Nc1ccc(Br)cc1F`, the RP-LC retention time is 832 s.

Regarding `CCC(CC)C(=O)NCCc1nc2cccnc2n1-c1ccccc1`, the RP-LC retention time came to 744 s.

Compound `COc1ccc(S(=O)(=O)N2CCN(c3cc(C)nc(NC4CCCCC4)n3)CC2)cc1C` yielded an RP-LC retention time of 848 s.

`Cn1ncc(N2CCCC(CC(=O)N3CCSCC3)C2)cc1=O` (stereo not given) gave an RP-LC retention time of 666 s.

On to `Cc1ccc(Cl)cc1NC(=O)Cn1cccc1-c1nnc(C2CC2)o1`, for which the RP-LC retention time is 956 s.

As to `O=C(c1cccn1Cc1noc(C2CC2)n1)N1CCc2ccccc21`, the RP-LC retention time is 982 s.

`O=C(NCc1ccco1)C1CCN(c2nc3ccccc3nc2C(F)(F)F)CC1` gave an RP-LC retention time of 1000 s.

The compound `CCCCOC(=O)CSc1nnc(-c2cc(OC)c(OC)c(OC)c2)o1` showed an RP-LC retention time of 1000 s.

In turn, `CC(C)CNC(=O)CCc1ccc2nc(-c3ccccc3)[nH]c2c1` gave an RP-LC retention time of 618 s.

`Cc1ccccc1S(=O)(=O)N1CCC2(CC1)NCCN=C2NCc1cccc(F)c1` returned an RP-LC retention time of 712 s.

`O=C(NCc1ccc(-c2noc(Cc3ccc(F)cc3)n2)s1)C1CC1`: the RP-LC retention time turned out to be 894 s.

In the case of `CCCN1C(=O)COc2ccc(-c3csc(NC(=O)c4ccncc4)n3)cc21`, the RP-LC retention time was found to be 816 s.

`Cc1ccc(-c2cc(NC(=O)C3CC3)on2)s1` had an RP-LC retention time of 869 s.

For `Cc1ccc(NC(=O)N2CCC3(CC2)NC(=O)c2ccccc2O3)cc1Cl`, the RP-LC retention time stood at 831 s.

Consider `O=C(CN1CC(c2nc(-c3ncccn3)no2)C1)Nc1ccc(F)c(Cl)c1`, for which the RP-LC retention time amounted to 576 s.

`O=C(Nc1cccc(OCc2nnc(-c3ccc(Cl)cc3)o2)c1)c1ccoc1` gave an RP-LC retention time of 970 s.

The compound `CC1(C(=O)NCc2ccc(F)cc2)CN(S(=O)(=O)c2ccccc2)CC(=O)N1C1CCCCC1` (stereo not given) yielded an RP-LC retention time of 1020 s.

`COC(=O)c1cccc(NC(=O)NCCn2nnc3cc(S(=O)(=O)N(C)C)ccc32)c1`: the RP-LC retention time stood at 732 s.

On to `COc1ccc(CC(=O)NCCc2ccc(N(C)C)cc2)cc1`, for which the RP-LC retention time was found to be 571 s.

Take `CCCNC(=O)N1CCCN(S(C)(=O)=O)CC1`: the RP-LC retention time was 582 s.

`CCc1cc(N2CCN(C(=O)COc3ccc(Cl)cc3)CC2)nc2nncn12` had an RP-LC retention time of 651 s.

In the case of `Cc1ccc(S(=O)(=O)N2CC(=O)N(c3cccc(F)c3)C(C)(C(=O)NCCC(C)C)C2)cc1` (stereo not given), the RP-LC retention time was found to be 1020 s.

The compound `O=S(=O)(c1cc(-c2nnc(C3CCC3)o2)co1)N1CCN(c2ccccc2F)CC1` returned an RP-LC retention time of 1070 s.

For `O=C(NC1CCCCCCC1)C1CC(=O)N(CCc2c[nH]c3ccc(F)cc23)C1` (stereo not given), the RP-LC retention time turned out to be 859 s.

As for `O=C(CSc1nnc(CCN2CCOCC2)o1)Nc1ccc(F)c(Cl)c1`, the RP-LC retention time is 571 s.

`COc1ccc(C2(C)NC(=O)N(CC(=O)Nc3ccc([N+](=O)[O-])cc3)C2=O)cc1` (stereo not given) yielded an RP-LC retention time of 727 s.

In turn, `O=C(Nc1ncc(-c2ccccc2)s1)c1ccccc1Br` had an RP-LC retention time of 936 s.

Take `Cc1cccc(Sc2nccnc2N2CCC(C(=O)NC3CCCCC3)CC2)c1`: the RP-LC retention time is 1150 s.

For `CCc1ccccc1NC(=O)N1CCN(C2=CC3=NC(CC)CN3C=N2)CC1` (stereo not given), the RP-LC retention time is 642 s.

Turning to `Cc1cc2c(c(=O)n(-c3ccccc3)c(=O)n2CC(=O)Nc2ccc(C(C)C)cc2)n1C`, the RP-LC retention time was 975 s.

For `CNC(=O)c1ccc(-c2nc3cc(NS(=O)(=O)c4ccc(C(C)C)cc4)ccc3n2C)cc1`, the RP-LC retention time came to 713 s.

Consider `COc1ccccc1-c1noc(C2CCCN2C(=O)COc2ccccc2C)n1` (stereo not given), for which the RP-LC retention time was found to be 939 s.

With `Cc1cccc(C)c1NC(=O)NC1CCN(c2nc3ccccc3n(C)c2=O)CC1`, the RP-LC retention time amounted to 838 s.

For the compound `CCN(CC)C(=O)c1c2c(nc3ccccc13)CCCC2`, the RP-LC retention time was 605 s.

As for `Cc1cc(C2CCCN2C(=O)Nc2ccccc2C)no1` (stereo not given), the RP-LC retention time is 757 s.

Regarding `COc1cccc(NC(=O)CN2C(=O)c3ccccc3Sc3ncccc32)c1`, the RP-LC retention time is 776 s.

As for `O=S(=O)(c1ccc(F)c(Cl)c1)N1CCc2nc[nH]c2C1`, the RP-LC retention time was 632 s.

Take `Nc1nc(N2CCN(C3CCCCC3)CC2)ncc1C(=O)NCc1ccccc1`: the RP-LC retention time is 627 s.

On to `O=C(Cn1cnc2c(-c3ccc(Cl)cc3)csc2c1=O)N1CCCC1`, for which the RP-LC retention time was determined as 838 s.

`O=C(NCc1[nH]nc2ccccc12)c1ccc(Cl)cc1` yielded an RP-LC retention time of 779 s.

As to `CCc1noc(-c2ccc(-n3cnc(C(=O)NCC(C)C)c3)nc2)n1`, the RP-LC retention time was 814 s.

In the case of `CCC(=O)NCc1nc2c(n1CC)CN(C(=O)c1ccc(Br)cc1)CC2`, the RP-LC retention time is 606 s.

Consider `CCn1c(=O)sc2cc(S(=O)(=O)N3CCC(C(=O)Nc4cc(C)ccc4OC)CC3)ccc21`, for which the RP-LC retention time worked out at 978 s.

With `CC(C)CC(NC(=O)Cc1cccs1)C(=O)Nc1nc2ccccc2[nH]1` (stereo not given), the RP-LC retention time is 716 s.

The compound `CCOc1ccccc1C(=O)N1CCCC1c1nc(-c2ccccc2OC)no1` (stereo not given) came in with an RP-LC retention time of 886 s.

In turn, `Cc1sc(-c2nc(-c3ccc(F)cc3)no2)cc1S(=O)(=O)N1CCN(c2ncccn2)CC1` showed an RP-LC retention time of 1240 s.
